Measurements from patent publication US9302999B2, “Substituted triazoles as herbicides” (E. I. DU PONT DE NEMOURS AND COMPANY, priority 2012, dated 2016).

Tests used:
Type in all cases: in vivo
[1] = test system: goosegrass (Eleusine indica); test: Test F pre-/postemergence: goosegrass; conditions: Preemergence
Source text: (§1) Seeds of plant species selected from corn (Zea mays), soybean (Glycine max), velvetleaf (Abutilon theophrasti), lambsquarters (Chenopodium album), poinsettia, wild (wild poinsettia, Euphorbia heterophylla), pigweed, palmer (palmer pigweed, Amaranthus palmeri), waterhemp (common waterhemp, Amaranthus rudis), surinam grass (Brachiaria decumbens), crabgrass, Brazil (Brazilian crabgrass, Digitaria horizontalis), panicum, fall (fall panicum Panicum dichotomiflorum), crabgrass, large (large crabgrass, Digitaria sanguinalis), foxtail, giant (giant foxtail, Setaria faberii), foxtail, green (green foxtail Setaria viridis), goosegrass (Eleusine indica), ragweed (common ragweed, Ambrosia elatior), barnyardgrass (Echinochloa crus-galli), sandbur (southern sandbur, Cenchrus echinatus), arrowleaf sida (Sida rhombifolia), ryegrass, Italian (Italian ryegrass, Lolium multiflorum), dayflower, VA (Virginia (VA) dayflower, Commelina virginica), field bindweed (Convolvulus arvensis), cocklebur (common cocklebur, Xanthium strumarium), morningglory (Ipomoea coccinea), nightshade (eastern black nightshade, Solanum ptycanthum), kochia (Kochia scoparia), nutsedge, yellow (yellow nutsedge, Cyperus esculentus), johnsongrass (Sorghum halepense), smartweed (ladysthumb smartweed, Polygonum persicaria), and beggarticks (hairy beggarticks, Bidens pilosa), were planted into a silt loam soil and treated preemergence with test chemicals formulated in a non-phytotoxic solvent mixture which included a surfactant. At the same time, plants selected from these crop and weed species and also pigweed (Amaranthus retroflexus), waterhemp_RES1 (ALS/Triazine resistant common waterhemp, Amaranthus rudis) and waterhemp_RES2 (ALS/HPPD resistant common waterhemp, Amaranthus rudis) were planted in pots containing a planting medium comprising spaghnum peat moss, vermiculite, wetting agent and starter nutrients treated with postemergence applications of some of the test chemicals formulated in the same manner. Plants ranged in height from 2 to 18 cm for postemergence treatments (1- to 4-leaf stage).
(§2) Treated plants and controls were maintained in a greenhouse for 14 to 21 days, after which time all species were compared to controls and visually evaluated. Plant response ratings, summarized in Table E, are based on a scale of 0 to 100 where 0 is no effect and 100 is complete control. A dash (-) response means no test result.

[2] = test system: beggarticks (hairy beggarticks, Bidens pilosa); test: Test F pre-/postemergence: beggarticks
Source text: as §1, §2

[3] = test system: foxtail, green (green foxtail, Setaria viridis); test: Test D pre-/postemergence: foxtail, green
In short: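 Species were sown in silt loam and sprayed preemergence, or grown in peat/vermiculite medium and sprayed postemergence at the 1- to 4-leaf stage (2–18 cm), with compounds in a surfactant-containing solvent. Injury was visually rated against untreated controls after 14–21 days, on a 0 (no effect) to 100 (complete control) scale.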

[4] = test system: Russian thistle (Salsola iberica); test: Test D pre-/postemergence: Russian thistle; conditions: Postemergence
Source text: (§3) Seeds of plant species selected from bluegrass (annual bluegrass, Poa annua), blackgrass (Alopecurus myosuroides), canarygrass (Phalaris minor), chickweed (common chickweed, Stellaria media), galium (catchweed bedstraw, Galium aparine), bromegrass, downy (downy bromegrass, Bromus tectorum), field poppy (Papaver rhoeas), field violet (Viola arvensis), foxtail, green (green foxtail, Setaria viridis), deadnettle (henbit deadnettle, Lamium amplexicaule), ryegrass, Italian (Italian ryegrass, Lolium multiflorum), kochia (Kochia scoparia), lambsquarters (Chenopodium album), oilseed rape (Brassica napus), pigweed (Amaranthus retroflexus), Russian thistle (Salsola iberica), chamomile (scentless chamomile, Matricaria inodora), speedwell (bird's-eye speedwell, Veronica persica), barley, spring (spring barley, Hordeum vulgare), wheat, spring (spring wheat, Triticum aestivum), buckwheat, wild (wild buckwheat, Polygonum convolvulus), mustard, wild (wild mustard, Sinapis arvensis), oat, wild (wild oat, Avena fatua), radish, wild (wild radish, Raphanus raphanistrum), windgrass (Apera spica-venti), barley, winter (winter barley, Hordeum vulgare), and wheat, winter (winter wheat, Triticum aestivum) were planted into a silt loam soil and treated preemergence with test chemicals formulated in a non-phytotoxic solvent mixture which included a surfactant. At the same time, these same crop and weed species were planted in pots containing the planting medium comprising spaghnum peat moss, vermiculite, wetting agent and starter nutrients and treated with postemergence applications of the test chemicals formulated in the same manner. Plants ranged in height from 2 to 18 cm (1- to 4-leaf stage).
as §2, with “controlled growth environment” for “greenhouse”, “days” for “days,”, “D,” for “E,”

[5] = test system: barley, winter (winter barley, Hordeum vulgare); test: Test D pre-/postemergence: barley, winter
Source text: as §3
as §2, with “controlled growth environment” for “greenhouse”, “days” for “days,”, “D,” for “E,”

[6] = 16 g ai/ha, scale 0 to 100, 0 no effect, 100 complete control
[7] = 31 g ai/ha, scale 0 to 100, 0 no effect, 100 complete control
[8] = Preemergence, 16 g ai/ha, scale 0 to 100, 0 no effect, 100 complete control
[9] = Preemergence, 31 g ai/ha, scale 0 to 100, 0 no effect, 100 complete control
[10] = Preemergence, 62 g ai/ha, scale 0 to 100
[11] = Preemergence, 125 g ai/ha, scale 0 to 100
[12] = Preemergence, 250 g ai/ha, scale 0 to 100
[13] = Postemergence, 16 g ai/ha, scale 0 to 100
[14] = Postemergence, 31 g ai/ha, scale 0 to 100 (0 no effect, 100 complete control)
[15] = Postemergence, 62 g ai/ha, scale 0 to 100 (0 no effect, 100 complete control)
[16] = Postemergence, 125 g ai/ha, scale 0 to 100, 0 no effect, 100 complete control

Row | SMILES | Plant response rating, Goosegrass [1, 6] | Plant response rating, Goosegrass [1, 7] | Plant response rating, Goosegrass ([1]; 62 g ai/ha, scale 0 to 100) | Plant response rating, Goosegrass ([1]; 125 g ai/ha, scale 0 to 100) | Plant response rating, Goosegrass ([1]; 250 g ai/ha, scale 0 to 100) | Plant response rating, Beggarticks [2, 8] | Plant response rating, Beggarticks [2, 9] | Plant response rating, Beggarticks [2, 10] | Plant response rating, Beggarticks [2, 11] | Plant response rating, Beggarticks [2, 12] | other results
1 | COc1nn(-c2cccc(F)c2)nc1Cc1ccnc(C(F)(F)F)c1 [Compound 139] | 5 | 70 | 80 | 98 | 100 | 0 | 0 | 0 | 0 | 0 | –
2 | Cc1nn(-c2ccnc(Cl)c2)nc1Cc1ccnc(C(F)(F)F)c1 [Compound 141] | – | – | – | – | – | – | – | – | – | – | Plant response rating, Beggarticks ([2]; Postemergence, 8 g ai/ha, scale 0 to 100): 40; Plant response rating, Beggarticks [2, 13]: 40; Plant response rating, Beggarticks ([2]; Postemergence, 31 g ai/ha, scale 0 to 100): 50; Plant response rating, Beggarticks ([2]; Postemergence, 62 g ai/ha, scale 0 to 100): 60; Plant response rating, Beggarticks ([2]; Postemergence, 125 g ai/ha, scale 0 to 100): 75
3 | Cc1nn(-c2ccc(F)cc2F)nc1Oc1ccnc(C(F)(F)F)c1 [Compound 146] | 0 | 40 | 70 | 75 | 98 | 0 | 0 | 0 | 0 | 0 | –
4 | Cc1nn(-c2ccc(C(F)(F)F)c(F)c2)nc1Oc1ccnc(C(F)(F)F)c1 [Compound 148] | 25 | 98 | 100 | 100 | 100 | 0 | 0 | 0 | 0 | 0 | Plant response rating: Foxtail, Green [3, 14]: 15; Plant response rating: Foxtail, Green [3, 15]: 50; Plant response rating: Foxtail, Green [3, 16]: 60; Plant response rating, Foxtail, Green [3, 13]: 15; Plant response rating, Foxtail, Green [3, 8]: 15; Plant response rating, Foxtail, Green [3, 9]: 50; Plant response rating, Foxtail, Green [3, 10]: 70; Plant response rating, Foxtail, Green [3, 11]: 100; Plant response rating: Russian Thistle ([4]; 31 g ai/ha, scale 0 to 100 (0 no effect, 100 complete control)): 75; Plant response rating: Russian Thistle ([4]; 62 g ai/ha, scale 0 to 100 (0 no effect, 100 complete control)): 85; Plant response rating: Russian Thistle ([4]; 125 g ai/ha, scale 0 to 100, 0 no effect, 100 complete control): 75; Plant response rating, Russian Thistle ([4]; 16 g ai/ha, scale 0 to 100): 65; Plant response rating: Barley, Winter [5, 14]: 20; Plant response rating: Barley, Winter [5, 15]: 25; Plant response rating: Barley, Winter [5, 16]: 30; Plant response rating, Barley, Winter [5, 13]: 10; Plant response rating, Barley, Winter [5, 8]: 0; Plant response rating, Barley, Winter [5, 9]: 0; Plant response rating, Barley, Winter [5, 10]: 5; Plant response rating, Barley, Winter [5, 11]: 5
